Results as given in PMC12196321, “Discovery of Novel Inhibitors of Aspergillus fumigatus DHODH via Virtual Screening, MD Simulation, and In Vitro Activity Assay” (Molecules, 2025).

Target: T1, Aspergillus fumigatus dihydroorotate dehydrogenase (AfDHODH) (Aspergillus fumigatus, UniProt Q4X169)
T1 construct: gene AFUA_2G11010; residues 89–531 with an N-terminal His-tag
T1 sequence (Q4X169 89-531): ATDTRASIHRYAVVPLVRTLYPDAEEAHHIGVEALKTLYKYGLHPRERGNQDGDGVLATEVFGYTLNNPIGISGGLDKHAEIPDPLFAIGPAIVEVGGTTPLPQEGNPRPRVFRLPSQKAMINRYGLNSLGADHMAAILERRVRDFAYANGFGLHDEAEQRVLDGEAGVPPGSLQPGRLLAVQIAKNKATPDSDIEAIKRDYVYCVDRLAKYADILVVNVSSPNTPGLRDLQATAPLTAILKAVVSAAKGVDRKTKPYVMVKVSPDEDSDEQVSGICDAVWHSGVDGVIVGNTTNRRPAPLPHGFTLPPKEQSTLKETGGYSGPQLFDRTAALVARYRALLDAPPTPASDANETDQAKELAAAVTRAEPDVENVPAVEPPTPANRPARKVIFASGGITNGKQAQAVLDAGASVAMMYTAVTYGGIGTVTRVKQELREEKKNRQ
Test: DCIP colorimetric enzyme assay (absorbance at […] nm)
Format: biochemical

**Q.** For `COC(=O)c1c(NC(=S)NNC(=O)c2ccc(Cl)s2)sc(C(=O)N(C)C)c1C` [CHEMBL1509241], which IC50 is on record?
**A.** 16.9 µM

**Q.** How did the IC50 turn out when `COC(=O)c1c(NC(=S)NNC(=O)c2ccc(Cl)s2)sc(C(=O)N(C)C)c1C` [ZINC67300323] was run?
**A.** 57.3 µM
